Test results published in PubChem BioAssay AID330 (DTP/NCI, 2004).
Toxic doses and inconclusive results are not listed.

System: P388 leukemia ip, CD2F1 mice, survival T/C
Experiment: NCI In Vivo Anticancer Drug Screen. Data for tumor model P388 Leukemia (intraperitoneal) in CD2F1 (CDF1) mice
Settings: endpoint: median survival time, higher = longer survival
How it was run: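 Mice carrying the transplanted tumor received test compound or vehicle. Survival was recorded in each group, and the value is the treated-group measurement divided by that of the vehicle-treated control group.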

With `COC(=O)C1CCC[P+]1(C)C` (configuration not stated) as the compound, how does the T/C (dose: 100.0 mg/kg/injection, schedule: Q01DX001 (ip), vehicle: saline) read?
The T/C was 106 % of control.

What about the T/C (dose: 400.0 mg/kg/injection, schedule: Q01DX001 (ip), vehicle: saline) of the same compound?
Its T/C is 101 % of control.

For `COc1ccc2c(c1)CN(C)CO2`, which T/C (dose: 50.0 mg/kg/injection, schedule: Q01DX005 (ip), vehicle: saline with Tween-80) is on record?
Its T/C is 103 % of control.

What about the T/C (dose: 100.0 mg/kg/injection, schedule: Q01DX005 (ip), vehicle: saline with Tween-80) of the same compound?
Its T/C is 102 % of control.

And the T/C (dose: 200.0 mg/kg/injection, schedule: Q01DX005 (ip), vehicle: saline with Tween-80)?
Its T/C is 107 % of control.

With `Cn1cnc([N+](=O)[O-])c1Sc1n[nH]c(N)n1` as the compound, how does the T/C (dose: 50.0 mg/kg/injection, schedule: Q01DX005 (ip), vehicle: Klucel (hydroxypropylcellulose) (HPC)) read?
The T/C was 111 % of control.

What about the T/C (dose: 100.0 mg/kg/injection, schedule: Q01DX005 (ip), vehicle: Klucel (hydroxypropylcellulose) (HPC)) of the same compound?
The T/C was 117 % of control.

And the T/C (dose: 200.0 mg/kg/injection, schedule: Q01DX005 (ip), vehicle: Klucel (hydroxypropylcellulose) (HPC))?
Its T/C is 108 % of control.

What does the source list for `O=C1Cc2c(Cl)cccc2C(=S)N1`?
T/C (dose: 50.0 mg/kg/injection, schedule: Q01DX001 (ip), vehicle: saline with Tween-80): 100 % of control; T/C (dose: 100.0 mg/kg/injection, schedule: Q01DX001 (ip), vehicle: saline with Tween-80): 100 % of control; T/C (dose: 200.0 mg/kg/injection, schedule: Q01DX001 (ip), vehicle: saline with Tween-80): 100 % of control

What does the source list for `CC(CCl)N(CCCl)Cc1cccc(Nc2ncnc3nc[nH]c23)c1` (configuration not stated)?
T/C (dose: 0.13 mg/kg/injection, schedule: Q01DX009 (ip), vehicle: saline): 118 % of control; T/C (dose: 0.15 mg/kg/injection, schedule: Q04DX003 (ip), vehicle: saline): 104 % of control; T/C (dose: 0.22 mg/kg/injection, schedule: Q04DX003 (ip), vehicle: saline): 109 % of control; T/C (dose: 0.33 mg/kg/injection, schedule: Q04DX003 (ip), vehicle: saline): 118 % of control; T/C (dose: 1.3 mg/kg/injection, schedule: Q01DX009 (ip), vehicle: saline sonified): 154 % of control; T/C (dose: 2.0 mg/kg/injection, schedule: Q01DX009 (ip), vehicle: saline sonified): 181 % of control; T/C (dose: 3.0 mg/kg/injection, schedule: Q01DX009 (ip), vehicle: saline sonified): 172 % of control

What does the source list for `NC(CCCCNC(=O)OCCCCCOC(=O)NCCCCC(N)C(=O)O)C(=O)O` (configuration not stated)?
T/C (dose: 50.0 mg/kg/injection, schedule: Q01DX009 (ip), vehicle: suspension in saline): 95 % of control; T/C (dose: 100.0 mg/kg/injection, schedule: Q01DX009 (ip), vehicle: suspension in saline): 106 % of control; T/C (dose: 200.0 mg/kg/injection, schedule: Q01DX009 (ip), vehicle: suspension in saline): 104 % of control

How did the T/C (dose: 100.0 mg/kg/injection, schedule: Q04DX003 (ip), vehicle: saline with Tween-80) turn out when `CCCCN(CCCC)CCC(=O)OCC` was run?
Its T/C is 104 % of control.

What about the T/C (dose: 200.0 mg/kg/injection, schedule: Q04DX003 (ip), vehicle: saline with Tween-80) of the same compound?
The T/C was 100 % of control.

What about the T/C (dose: 400.0 mg/kg/injection, schedule: Q04DX003 (ip), vehicle: saline with Tween-80) of the same compound?
The T/C was 109 % of control.

Which results are given for `CC(=O)O[C@@H]1C[C@H]2C(C)(C)C(=O)C=C[C@]2(C)[C@H]2CC[C@]3(C)C(=CC(=O)O[C@]3(O)c3ccoc3)[C@@]21C`?
T/C (dose: 1.0 mg/kg/injection, schedule: Q01DX005 (ip), vehicle: Klucel (hydroxypropylcellulose) (HPC)): 95 % of control; T/C (dose: 2.0 mg/kg/injection, schedule: Q01DX005 (ip), vehicle: Klucel (hydroxypropylcellulose) (HPC)): 100 % of control; T/C (dose: 4.0 mg/kg/injection, schedule: Q01DX005 (ip), vehicle: Klucel (hydroxypropylcellulose) (HPC)): 95 % of control; T/C (dose: 8.0 mg/kg/injection, schedule: Q01DX005 (ip), vehicle: Klucel (hydroxypropylcellulose) (HPC)): 95 % of control

What does the source list for `C=C(c1ccccc1)c1ccccc1-c1ccccc1C(=C)c1ccccc1`?
T/C (dose: 100.0 mg/kg/injection, schedule: Q04DX003 (ip), vehicle: saline): 99 % of control; T/C (dose: 200.0 mg/kg/injection, schedule: Q04DX003 (ip), vehicle: saline): 100 % of control; T/C (dose: 400.0 mg/kg/injection, schedule: Q04DX003 (ip), vehicle: saline): 98 % of control

`COC(=O)C1=CO[C@@H](OC2OC(CO)C(O)C(O)C2O)[C@H]2[C@@H]1C=C[C@@]2(O)CO` (some centres not stated) was tested. Which T/C (dose: 6.25 mg/kg/injection, schedule: Q01DX009 (ip), vehicle: Klucel (hydroxypropylcellulose) (HPC)) did it give?
Its T/C is 100 % of control.

What about the T/C (dose: 12.5 mg/kg/injection, schedule: Q01DX009 (ip), vehicle: Klucel (hydroxypropylcellulose) (HPC)) of the same compound?
Its T/C is 88 % of control.

And the T/C (dose: 25.0 mg/kg/injection, schedule: Q01DX009 (ip), vehicle: Klucel (hydroxypropylcellulose) (HPC))?
The T/C was 100 % of control.

And the T/C (dose: 50.0 mg/kg/injection, schedule: Q01DX009 (ip), vehicle: Klucel (hydroxypropylcellulose) (HPC))?
Its T/C is 99 % of control.

What about the T/C (dose: 100.0 mg/kg/injection, schedule: Q01DX009 (ip), vehicle: Klucel (hydroxypropylcellulose) (HPC)) of the same compound?
The T/C was 107 % of control.

Which T/C (dose: 50.0 mg/kg/injection, schedule: Q01DX009 (ip), vehicle: saline with Tween-80) does the source give for `Cc1ccccc1NC(CCN1CCCCC1)=NC(C)(C)C` here?
Its T/C is 111 % of control.

What about the T/C (dose: 100.0 mg/kg/injection, schedule: Q01DX009 (ip), vehicle: saline with Tween-80) of the same compound?
The T/C was 103 % of control.

What about the T/C (dose: 200.0 mg/kg/injection, schedule: Q01DX009 (ip), vehicle: saline with Tween-80) of the same compound?
Its T/C is 100 % of control.

For `CC1C2C=CC1C(c1c3ccc(=O)cc-3oc3cc(O)ccc13)C2C(=O)O` (configuration not stated), which T/C (dose: 60.0 mg/kg/injection, schedule: Q01DX005 (ip), vehicle: saline with Tween-80) is on record?
The T/C was 99 % of control.

What about the T/C (dose: 120.0 mg/kg/injection, schedule: Q01DX005 (ip), vehicle: saline with Tween-80) of the same compound?
Its T/C is 100 % of control.

And the T/C (dose: 240.0 mg/kg/injection, schedule: Q01DX005 (ip), vehicle: saline with Tween-80)?
The T/C was 101 % of control.
